Experiment: Theaflavins feeding model (optical density)
Type: physicochemical
Protocol: A 3 mg/mL aqueous solution of theaflavins was prepared at 80 degrees Celsius. 0.625 mg/mL aqueous solutions of whey protein isolate and iota carrageenan were prepared and all three solutions combined to yield a solution with 1.5 mg/mL theaflavins, 0.156 mg/mL whey protein isolate and 0.156 mg/mL iota carrageenan. The following feeding programme was used with the 3 mg/mL aqueous solution of theaflavins being either at ambient temperature (reference “Procedure B”) or at 80 degrees Celsius (reference “Procedure A”) when combined with the ambient temperature 0.625 mg/mL aqueous solutions of whey protein isolate and iota carrageenan:
TF+WPI/IC: 25 mL whey protein isolate solution and 25 mL iota carrageenan solution are premixed and added to 50 mL theaflavins solution. TF+IC: 25 mL iota carrageenan solution is added to 50 mL of theaflavins solution and 25 mL of deionised water added. TF+WPI: 25 mL whey protein isolate solution is added to 50 mL of theaflavins solution and 25 mL of deionised water added. TFWPI+IC: 25 mL whey protein isolate solution is added to 50 mL theaflavins solution, and then 25 mL iota carrageenan solution is added after 10 minutes. […]
All the samples were stored at 4 degrees Celsius for 24 hours in order to equilibrate the tea creaming process before measurement of turbidity at 600 nm with a Safire2™ microplate reader (Tecan Group Ltd.).

For Iota carrageenan, the “Effect on solubility of theaflavin” value was “decreases the solubility of theaflavin”.

From US20100222439A1, “BEVERAGE CONTAINING A POLYMERIC POLYPHENOL” (CONOPCO, INC., D/B/A UNILEVER, priority 2009, published 2010)
